Target: T1, human MRGPRX2 (Homo sapiens, UniProt Q96LB1)
T1 construct: expressed in transfected cells; host or cells: FlpIn TRex HEK293 (TRex-MRGPRX2-HEK), doxycycline-induced
T1 sequence (Q96LB1 1-330): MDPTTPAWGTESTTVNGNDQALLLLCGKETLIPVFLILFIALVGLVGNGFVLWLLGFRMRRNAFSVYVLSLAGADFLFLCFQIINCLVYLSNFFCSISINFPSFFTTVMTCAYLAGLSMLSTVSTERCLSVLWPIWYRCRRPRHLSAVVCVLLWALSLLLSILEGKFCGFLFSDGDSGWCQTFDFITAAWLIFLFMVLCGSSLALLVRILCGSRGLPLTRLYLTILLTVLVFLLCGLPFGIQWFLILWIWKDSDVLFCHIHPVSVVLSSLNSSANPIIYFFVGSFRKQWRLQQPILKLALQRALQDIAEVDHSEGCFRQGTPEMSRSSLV
Experiment: MRGPRX2 Activity Assay (IP-1 HTRF, antagonist mode)
Type: cell-based
Details: FlpIn TRex-MRGPRX2-HEK293 cells; versus 1 μM Cortistatin-14 agonist; 30 minutes preincubation
Experimental: FlpIn TRex-MRGPRX2-HEK293 cells (herein TRex-MRPGRX2-HEK) stably transfected to express human MRGPRX2 were maintained at 37° C. with 5% CO2 and grown in DMEM supplemented with 10% FBS, 1% L-Glutamate, 1% penicillin/streptomycin, 100 ug/mL Hygromycin B, and 15 ug/mL Blasticidin.
GOI (MRGPRX2) expression was induced with 100 ng/mL of Doxycycline 18-24 hours prior to experiment, in flask. On the day of experiment, cells were lifted with TripLE Express and seeded in 384-well white walled opaque bottomed, assay plates, at 8,000 cells per well in 5 uL freshly made assay buffer (HBSS, 20 mM HEPES, 0.1% BSA and 10 mM LiCl). Compounds solubilized in 100% DMSO at 30 mM were serially diluted (1:4) first in 100% DMSO, and an intermediate plate of assay buffer was used to establish a final top concentration of 30 uM (in assay plate). Final DMSO concentration was kept constant at 1% across assay plates. […], at 30 mM stock concentration was solubilized in HBSS+0.1% BSA, stored at −20° C. in 5 μL aliquots and discarded after one freeze-thaw cycle. […].
Antagonist equilibrium was established with 30 minutes preincubation, followed by no wash, direct addition, and stimulation of agonist for 1 hour at 37° C./5% CO2. IP-1 standards and HTRF detection reagents were added according to the IP-one Gq kit protocol purchased from CisBio (part number 62IPAPEJ). The plate was read on an EnVision XCite plate reader. The HTRF ratio was then calculated from raw data (channel1/channel2×10,000) and analyzed using either GraphPad Prism or a custom Python script to calculate IC50 using Log[Antagonist] vs. response (4 parameter) nonlinear regression.

C[C@@H](C(=O)Nc1cn2c(n1)CC[C@@H]2c1cc(F)cc(F)c1)N1CCC(F)(F)[C@@H](c2cc[n+]([O-])c(CN3CCC(F)(F)CC3)c2)C1 (single isomer, unassigned) [Compound 534]
IC50: > 30000 nM

C[C@@H](C(=O)Nc1cn(Cc2cccc(Cl)c2)cn1)N1CCC(F)(F)[C@@H](c2cc[n+]([O-])cc2)C1 [Compound 43, 4-((S)-1-((S)-1-((1-(3-chlorobenzyl)-1H-imidazol-4-yl)amino)-1-oxopropan-2-yl)-4,4-difluoropiperidin-3-yl)pyridine 1-oxide]
IC50: 131 nM

Cc1nc(NC(=O)[C@H](C)N2CCOCC2)cn1Cc1cc(F)cc(F)c1 (single isomer, unassigned) [Compound 23]
IC50: 700 nM

C[C@@H](C(=O)Nc1cn(Cc2ccccc2C(F)(F)F)cn1)N1CCC(F)(F)[C@@H](c2cc[n+]([O-])cc2)C1 [Compound 41, 4-((S)-4,4-difluoro-1-((S)-1-oxo-1-((1-(2-(trifluoromethyl)benzyl)-1H-imidazol-4-yl)amino)propan-2-yl)piperidin-3-yl)pyridine 1-oxide]
IC50: 269 nM

C[C@@H](C(=O)Nc1cc2n(n1)CC[C@H]2c1cc(F)cc(F)c1)N1CCC(F)(F)[C@@H](c2cc[n+]([O-])cc2)C1 (single isomer, unassigned) [Compound 550]
IC50: 6 nM

C[C@H](C(=O)Nc1nc(Cc2cc(F)cc(F)c2)no1)N1CCC(F)(F)[C@@H](c2cc[n+]([O-])cc2)C1 (single isomer, unassigned) [Compound 59]
IC50: 432 nM

C[C@@H](C(=O)Nc1cn2c(n1)[C@H](O)C[C@H]2c1cc(F)cc(F)c1)N1CCC(F)(F)[C@@H](c2ccc(=O)[nH]c2)C1 (single isomer, unassigned) [Compound 518]
IC50: > 30000 nM

Cc1nc(NC(=O)[C@@H](C)N2CCC(F)(F)[C@@H](c3cc[n+]([O-])cc3)C2)cn1Cc1cc(F)cc(C#N)c1 (single isomer, unassigned) [Compound 18]
IC50: > 10000 nM

C[C@@H](C(=O)Nc1cn2c(n1)CC[C@@H]2c1cc(F)cc(F)c1)N1CCC(F)(F)[C@H](c2c[nH]c(=O)c(CO)c2)C1 (single isomer, unassigned) [Compound 524]
IC50: 50 nM

C[C@@H](C(=O)Nc1nc2cc3c(cc2s1)OCO3)N1CCC(F)(F)[C@@H](c2cc[n+]([O-])cc2)C1 (single isomer, unassigned) [Compound 12]
IC50: 196 nM

C[C@@H](C(=O)Nc1cn2c(n1)CC[C@@H]2c1cc(F)cc(F)c1)N1CCC2(CC2)[C@@H](c2cc[n+]([O-])cc2)C1 (single isomer, unassigned) [Compound 521]
IC50: 4750 nM

C[C@@H](C(=O)Nc1cn(Cc2cc(F)c(Cl)c(F)c2)cn1)N1CCC(F)(F)[C@@H](c2cc[n+]([O-])cc2)C1 [Compound 44, 4-((S)-1-((S)-1-((1-(4-chloro-3,5-difluorobenzyl)-1H-imidazol-4-yl)amino)-1-oxopropan-2-yl)-4,4-difluoropiperidin-3-yl)pyridine 1-oxide]
IC50: 241 nM

C[C@@H](C(=O)Nc1cn2c(n1)[C@@H](O)C[C@@H]2c1cc(F)cc(F)c1)N1CCC(F)(F)[C@@H](c2ccc(=O)[nH]c2)C1 (single isomer, unassigned) [Compound 516]
IC50: > 30000 nM

C[C@@H](C(=O)Nc1cn2c(n1)CC[C@@H]2c1cc(F)cc(F)c1)N1CCC(F)(F)[C@H](c2cc[n+]([O-])c(CN3CCC(F)(F)CC3)c2)C1 (single isomer, unassigned) [Compound 535]
IC50: 31 nM

Cc1nc(NC(=O)[C@@H](C)N2CCOCC2)cn1Cc1cc(F)cc(F)c1 (single isomer, unassigned) [Compound 24]
IC50: 3910 nM

C[C@H](C(=O)Nc1cn2c(n1)CC[C@H]2c1cc(F)cc(F)c1)N1CCOCC1 (single isomer, unassigned) [Compound 513]
IC50: > 30000 nM

C[C@@H](C(=O)Nc1cn2c(n1)CC[C@@H]2c1cc(F)cc(F)c1)N1CCOCC1 (single isomer, unassigned) [Compound 511]
IC50: > 30000 nM

[2H]C([2H])(c1cc(F)cc(F)c1)n1cnc(NC(=O)[C@H](C)N2CCC(F)(F)[C@@H](c3cc[n+]([O-])cc3)C2)c1 [Compound 52, 4-((S)-1-((S)-1-((1-((3,5-difluorophenyl)methyl-d2)-1H-imidazol-4-yl)amino)-1-oxopropan-2-yl)-4,4-difluoropiperidin-3-yl)pyridine 1-oxide]
IC50: 22 nM

C[C@@H](C(=O)Nc1cn2c(n1)CC[C@@H]2c1cc(F)cc(F)c1)N1CCC2(CC2)[C@H](c2cc[n+]([O-])cc2)C1 (single isomer, unassigned) [Compound 522]
IC50: 229 nM

C[C@@H](C(=O)Nc1cn2c(n1)CC[C@@H]2c1cc(F)cc(F)c1)N1CCC(F)(F)[C@](C)(c2cc[n+]([O-])cc2)C1 (single isomer, unassigned) [Compound 520]
IC50: 129 nM

C[C@H](C(=O)Nc1cn2c(n1)CC[C@@H]2c1cc(F)cc(F)c1)N1CCC(F)(F)[C@@H](c2cc[n+]([O-])cc2)C1 (single isomer, unassigned) [Compound 488]
IC50: 8810 nM

Cc1nc(NC(=O)[C@H](C)N2CCC(F)(F)[C@@H](c3cc[n+]([O-])cc3)C2)cn1Cc1cc(F)cc(C#N)c1 (single isomer, unassigned) [Compound 17]
IC50: 125 nM

C[C@@H](C(=O)Nc1cn(Cc2cc(F)cc(F)c2)c(C(F)F)n1)N1CCC(F)(F)[C@H](c2c[nH]c(=O)c(CO)c2)C1 (single isomer, unassigned) [Compound 491]
IC50: 1640 nM

C[C@@H](C(=O)Nc1cn(Cc2ccc(Cl)cc2F)cn1)N1CCC(F)(F)[C@@H](c2cc[n+]([O-])cc2)C1 [Compound 31, 4-((S)-1-((S)-1-((1-(4-chloro-2-fluorobenzyl)-1H-imidazol-4-yl)amino)-1-oxopropan-2-yl)-4,4-difluoropiperidin-3-yl)pyridine 1-oxide]
IC50: 361 nM

C[C@@H](C(=O)Nc1cn(Cc2cc(F)cc(F)c2)c(C(F)F)n1)N1CCC(F)(F)CC1 [Compound 492, (S)—N-(1-(3,5-difluorobenzyl)-2-(difluoromethyl)-1H-imidazol-4-yl)-2-(4,4-difluoropiperidin-1-yl)propanamide]
IC50: 35 nM

C[C@@H](C(=O)Nc1cn2c(n1)CC[C@@H]2c1cc(F)cc(F)c1)N1CCCCC1 (single isomer, unassigned) [Compound 497]
IC50: > 30000 nM

C[C@H](C(=O)Nc1cn2c(n1)CC[C@@H]2c1cc(F)cc(F)c1)N1CCOCC1 (single isomer, unassigned) [Compound 512]
IC50: 4080 nM

C[C@@H](C(=O)Nc1cn(Cc2cc(Cl)ccc2F)cn1)N1CCC(F)(F)[C@@H](c2cc[n+]([O-])cc2)C1 [Compound 33, 4-((S)-1-((S)-1-((1-(5-chloro-2-fluorobenzyl)-1H-imidazol-4-yl)amino)-1-oxopropan-2-yl)-4,4-difluoropiperidin-3-yl)pyridine 1-oxide]
IC50: 30 nM

C[C@@H](C(=O)Nc1cn(Cc2cc(F)c(Cl)cc2F)cn1)N1CCC(F)(F)[C@@H](c2cc[n+]([O-])cc2)C1 [Compound 45, 4-((S)-1-((S)-1-((1-(4-chloro-2,5-difluorobenzyl)-1H-imidazol-4-yl)amino)-1-oxopropan-2-yl)-4,4-difluoropiperidin-3-yl)pyridine 1-oxide]
IC50: 885 nM

Cc1nc(NC(=O)[C@@H](C)N2CCC(F)(F)CC2)cn1Cc1cc(F)cc(F)c1 (single isomer, unassigned) [Compound 22]
IC50: 124 nM

C[C@@H](C(=O)Nc1cn(Cc2cc(F)ccc2F)cn1)N1CCC(F)(F)[C@@H](c2cc[n+]([O-])cc2)C1 [Compound 40, 4-((S)-1-((S)-1-((1-(2,5-difluorobenzyl)-1H-imidazol-4-yl)amino)-1-oxopropan-2-yl)-4,4-difluoropiperidin-3-yl)pyridine 1-oxide]
IC50: 25 nM

C[C@@H](C(=O)Nc1cn(Cc2ccc(F)cc2)cn1)N1CCC(F)(F)[C@@H](c2cc[n+]([O-])cc2)C1 [Compound 36, 4-((S)-4,4-difluoro-1-((S)-1-((1-(4-fluorobenzyl)-1H-imidazol-4-yl)amino)-1-oxopropan-2-yl)piperidin-3-yl)pyridine 1-oxide]
IC50: 209 nM

C[C@@H](C(=O)Nc1cn(Cc2ccc(F)c(F)c2F)cn1)N1CCC(F)(F)[C@@H](c2cc[n+]([O-])cc2)C1 [Compound 42, 4-((S)-4,4-difluoro-1-((S)-1-oxo-1-((1-(2,3,4-trifluorobenzyl)-1H-imidazol-4-yl)amino)propan-2-yl)piperidin-3-yl)pyridine 1-oxide]
IC50: 169 nM
